The text below walks through data of US7666879B2, “Imidazo[1,2-A]pyridine compounds as VEGF-R2 inhibitors” (Eli Lilly and Company, priority 2005, dated 2010).

The target in one experiment is T1, VEGFR2 (KDR) (Homo sapiens, UniProt P35968).
T1 construct: The isolated catalytic domain (Amino Acids 807-1356) of VEGFR2; 6xHis (N); made in house; host or cells: Sf9 insect cells (baculovirus, pFASTBac-HIS)
The experiment in a line: KDR-CD in vitro autophosphorylation kinase assay. The class given is biochemical. The note with it: 30 minute preincubation of compound and enzyme; average of at least two separate determinations; 1 μM ATP. Here is the method:
The following assay is performed to measure the IC50 values of inhibition of phosphorylation of VEGF-R2 with compounds of the present invention.
Autophosphorylation Enzyme Assay
A. VEGFR2 (KDR) cloning and purification.
The isolated catalytic domain (Amino Acids 807-1356) of VEGFR2 (KDR-CD, cloned from a human heart cDNA library) is cloned by standard PCR procedures (pCR-Script to make plasmid P340) as a BamHI/HindIII fragment using the following primers: Upper: 5′-[…]-3′ and Lower: 5′-[…]-3′, its nucleotide sequence is verified and it is subcloned into the pFASTBac-HIS™ vector system (Gibco-BRL) (to give plasmid B344) for baculovirus expression. (Carroll, et al., J. Biol. Chem, 268, 12837-42 (1993). KDR-CD is expressed as an N-terminal 6×HIS fusion protein in Sf9 cells (Gibco-BRL) and purified according to standard affinity chromatography protocols (For example, Amersham Pharmacia Biotech: Affinity Chromatography Principles and Methods #18-1022-29). Briefly, 15-25 g pellets are lysed in lysis buffer (50 mM Tris pH 7.5, 150 mM NaCl, 0.5% NP40 (CalbioChem) with freshly added 20 mM -mercaptoethanol, 10 mM imidazole, 1 mM PMSF(protease inhibitor (phenylmethanesulfonyl fluoride) from Sigma), 1×EDTA-free complete protease inhibitor (Boehringer Mannheim)) on ice for 30 minutes. The cell lysates are cleared by centrifugation at 30,000 g for 20 minutes at 4° C., filtered through a […] and applied to a NiNTA™ column (Qiagen). Unbound protein is removed with successive RIPA buffer washes (50 mM Tris pH 7.5, 150 mM NaCl, 1% NP40, 1 mM EDTA, 0.25% sodium deoxycholate, 20 mM -mercaptoethanol), lysis buffer washes and finally 1× kinase buffer (KB) washes (100 mM HEPES pH 7.5, 10 mM MnCl2, 5 mM -mercaptoethanol). KDR protein is eluted in 1× KB containing a linear gradient of 200 mM imidazole over 10 column volumes. The peak fractions (based on a SDS-PAGE gel analysis) are combined, concentrated by Centricon™ to ˜1 mg/mL and desalted over an HR26/10 desalting column (Amersham Pharmacia) in 1× KB. This KDR prep is estimated to be ˜40% pure with only KDR tyrosine kinase activity detectable by anti-phosphotyrosine western analysis following the in vitro autophosphorylation reaction.
B. KDR-CD In Vitro Autophosphorylation Kinase Assay
Kinase reactions contain 1 μg total protein in 40 μL reaction volume containing 4% (v/v) DMSO final concentration, 1 μM ATP, 1 uCi/rxn ^33P-ATP (from NEN) in 1×KB. A compound dilution series of 20 μM to 1.0 nM is added to the above reaction to determine compound activity; test compound may be pre-incubated with KDR enzyme for up to 30 minutes at 30° C. prior to addition of the radiolabel. The radiolabeling reaction is carried out at 30° C. for 20 minutes before adding 100 μL 25% TCA with 3 mM ATP to stop the reaction, then precipitated with 50 μL 1 mg/mL BSA. The quenched reactions are transferred to MultiScreen™-FC plates (Millipore) and incubated for 1 hour at room temperature. The plates are filtered, washed 3× with 250 μL 10% TCA and blotted dry. MicroScint™20 (Packard) is added and the plate is counted on a Wallac Microbeta™. Dougher-Vermazen, M. et al., Biochem Biophys Res Commun 205(1): 728-738 (1994). The IC50 values are calculated from a logistic 4-parameter curve fit.
All values are determined using a 30 minute preincubation of compound and enzyme prior to initiating the labeling reaction and represent the average of at least two separate determinations: […]

In experiment [1] the test system is PC-3 human prostate adenocarcinoma cells. Description: In vivo efficacy in PC-3 prostate tumor xenografts. The note with it: for Signif. (tumor volume vs vehicle control, two-way ANOVA) / Mean Tumor Volume: oral gavage. Also noted: species or system mice; key to Mean Tumor Volume: mg, volume calculated as l×w^2×0.536 from caliper diameters. Here is the method:
In Vivo Efficacy in PC-3 Prostate Tumor Xenografts
Male SCID mice (Fox Chase, Taconic laboratories) are implanted s.c. in the rear flank with 0.2 mL of a cell suspension prepared in serum-free media containing 5×10^6 PC-3 human prostate adenocarcinoma cells (obtained from ATCC). Example 130 is prepared as a suspension in 1% CMC/0.25% Tween 80 and administered by oral gavage for 21 days beginning after tumors reach approximately 150-200 mg (volume calculated by l×w^2×0.536 where l is the larger and w is the smaller of perpendicular diameters determined by caliper measurement). Example 130 is administered twice daily (12 hours apart) for the 15, 7.5, and 3.75 mg/kg doses while the 30 mg/kg dose is given once daily. Groups consists of 8 mice each and one group receives 0.2 mL of the CMC/Tween vehicle twice daily as a control.

A word on the IC50: it is the concentration at which inhibition is half-maximal.

Structures are written as SMILES.

T1 sequence (P35968 807-1356): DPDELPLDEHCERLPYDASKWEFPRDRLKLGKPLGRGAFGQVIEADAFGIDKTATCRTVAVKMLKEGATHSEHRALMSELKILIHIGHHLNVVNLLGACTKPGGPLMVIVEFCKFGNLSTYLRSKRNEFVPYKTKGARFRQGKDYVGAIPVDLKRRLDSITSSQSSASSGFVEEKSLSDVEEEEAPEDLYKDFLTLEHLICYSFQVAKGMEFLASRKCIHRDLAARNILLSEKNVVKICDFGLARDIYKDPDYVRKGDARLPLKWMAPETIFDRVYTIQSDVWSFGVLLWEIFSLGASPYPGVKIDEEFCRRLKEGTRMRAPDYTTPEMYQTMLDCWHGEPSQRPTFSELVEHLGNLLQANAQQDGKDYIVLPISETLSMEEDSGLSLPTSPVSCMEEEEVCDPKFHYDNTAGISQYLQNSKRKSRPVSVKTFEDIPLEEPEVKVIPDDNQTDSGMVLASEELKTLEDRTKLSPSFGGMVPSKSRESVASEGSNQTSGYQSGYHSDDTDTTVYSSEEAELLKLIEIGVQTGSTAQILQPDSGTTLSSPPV

Consider `O=C(Cc1ccc(-c2cnc3cc(-c4ccncc4)ccn23)cc1)Nc1cccc(C(F)(F)F)c1` [Example 173, 2-[4-(7-Pyridin-4-yl-imidazo[1,2-a]pyridin-3-yl)-phenyl]-N-(3-trifluoromethyl-phenyl)-acetamide], for which the concentration for half-maximal inhibition (IC50) at VEGFR2 (KDR) worked out at 26 nM.
The same measure, in the same setting: the figure for `CC(C)(C)c1cc(NC(=O)Cc2ccc(-c3cnc4cc(-c5ccc(S(C)(=O)=O)cc5)ccn34)cc2F)no1` [Example 196, N-(5-tert-Butyl-isoxazol-3-yl)-2-{2-fluoro-4-[7-(4-methanesulfonyl-phenyl)-imidazo[1,2-a]pyridin-3-yl]-phenyl}-acetamide] is 106 nM; for `CC(C)(C)c1cc(NC(=O)Cc2ccc(-c3cnc4cc(-c5cn[nH]c5)ccn34)cc2)no1` [Example 303, N-(5-tert-Butyl-isoxazol-3-yl)-2-{4-[7-(1H-pyrazol-4-yl)-imidazo[1,2-a]pyridin-3-yl]-phenyl}-acetamide] it is 46 nM.
With `CC(C)(C)c1cnc(NC(=O)NCc2ccc(-c3cnc4cc(-c5ccncc5)ccn34)cc2)s1` [Example 39, 1-(5-tert-Butyl-thiazol-2-yl)-3-[4-(7-pyridin-4-yl-imidazo[1,2-a]pyridin-3-yl)-benzyl]-urea, methane sulfonate], inhibition against VEGFR2 (KDR) was half-maximal at 28 nM (IC50).
`CC(C)(C)c1cc(NC(=O)Cc2ccc(-c3cnc4cc(-c5ccncc5)ccn34)cc2)ncn1` [Example 289, N-(6-tert-Butyl-pyrimidin-4-yl)-2-[4-(7-pyridin-4-yl-imidazo[1,2-a]pyridin-3-yl)-phenyl]-acetamide] came in with an IC50 at VEGFR2 (KDR) of 41 nM.
With `CC(C)(C)c1cc(NC(=O)Nc2ccc(-c3cnc4cc(-c5ccncc5)ccn34)cc2F)no1` [Example 130, 1-(5-tert-Butyl-isoxazol-3-yl)-3-[2-fluoro-4-(7-pyridin-4-yl-imidazo[1,2-a]pyridin-3-yl)-phenyl]-urea], the “Signif. (tumor volume vs vehicle control, two-way ANOVA)” value was “** (**: 0.001 < p <= 0.01)” in experiment [1] (3.75 mg/kg twice daily, Day 55); “*** (***: p <= 0.001)” in experiment [1] (3.75 mg/kg twice daily, Day 57); “*** (***: p <= 0.001)” in experiment [1] (7.5 mg/kg twice daily, Day 55); “*** (***: p <= 0.001)” in experiment [1] (7.5 mg/kg twice daily, Day 57); “*** (***: p <= 0.001)” in experiment [1] (15 mg/kg twice daily, Day 55); “*** (***: p <= 0.001)” in experiment [1] (15 mg/kg twice daily, Day 57). The “Signif. (tumor volume vs vehicle control, two-way ANOVA)” value in experiment [1] (30 mg/kg once daily, Day 55) is given as “*** (***: p <= 0.001)”; in experiment [1] (30 mg/kg once daily, Day 57) it was “*** (***: p <= 0.001)”. Besides, the “Mean Tumor Volume” value in experiment [1] (3.75 mg/kg twice daily, Day 55, PC-3 xenograft in male SCID mice) was 268.1; in experiment [1] (3.75 mg/kg twice daily, Day 57, PC-3 xenograft in male SCID mice), 310.1; in experiment [1] (7.5 mg/kg twice daily, Day 55, PC-3 xenograft in male SCID mice) it was 100.8; in experiment [1] (7.5 mg/kg twice daily, Day 57, PC-3 xenograft in male SCID mice), 86.3; in experiment [1] (15 mg/kg twice daily, Day 55, PC-3 xenograft in male SCID mice) it was 67.7; in experiment [1] (15 mg/kg twice daily, Day 57, PC-3 xenograft in male SCID mice) it was 62.2. Also, the “Mean Tumor Volume” value is 95.7 in experiment [1] (30 mg/kg once daily, Day 55, PC-3 xenograft in male SCID mice) and 86.8 in experiment [1] (30 mg/kg once daily, Day 57, PC-3 xenograft in male SCID mice). In experiment [1] (male SCID mice, oral gavage for 21 days, 15, 7.5, 3.75 mg/kg twice daily, 30 mg/kg once daily, two-way ANOVA), the “tumor volume, treatment groups versus control group at study termination” value is given as “statistically different from the control group (p<0.001)”. The compound also gave an IC50 against VEGFR2 (KDR) of 42 nM.
